{"source": "patent US8993637B2", "about": "(priority 2013, dated 2015)", "key": {"[1]": {"assay": "Adverse side effects in animals", "conditions": "in vivo"}, "NF-κB in RAW-Blue cells": {"system": "NF-κB in RAW-Blue cells", "assay": "NF-κB reporter assay (secreted embryonic alkaline phosphatase, QUANTI-Blue)", "assay_type": "cell-based, murine", "conditions": "30 min preincubation, then 24 h LPS 1 μg/ml", "procedure": "(§1) ROS production was measured as the relative fluorescence intensity. […] The data are expressed as the mean±SD for three separate experiments. *p<0.05, **p<0.01 compared to the LPS-treated group. RAW-Blue™ cells (Murine macrophages RAW264.7 stably transfected with the NF-κB reporter gene) purchased from InvivoGen (San Diego, Calif.). LPS (from Escherichia coli 0111:B4) and mouse antibodies against phospho-ERK1/2, phospho-JNK1/2, and phospho-p38 (all from Sigma, St. Louis, Mo.). Rabbit antibodies against mouse ERK1, JNK1, and p38, and HRP-labeled second antibodies were purchased from Santa Cruz Biotechnology, and IL-1β, IL-6, and TNF-α ELISA kits from R&D Systems. ROS production assay, NO production assay, NF-κB reporter assay, ELISA, and Western blotting were performed as described previously."}, "RAW 264.7 macrophages": {"system": "RAW 264.7 macrophages", "assay": "ROS production assay in LPS-activated macrophages", "assay_type": "cell-based, murine", "conditions": "Citral 10 μg/ml; 30 min before and during LPS (1 μg/ml) stimulation, 0-4 h", "procedure": "as §1"}, "ROS and NO": {"system": "ROS and NO", "assay": "Mouse FSGS model: superoxide anion (ROS), DHE and NO in renal tissue, serum, urine", "assay_type": "in vivo", "conditions": "days 14 and 28", "procedure": "A progressive type of mouse FSGS model was used, particularly characterized by EPHLs, a key histopathology index of progression of FSGS, peri-glomerular inflammation, and progressive glomerular hyalinosis/sclerosis. The FSGS model was induced in 8-week-old male BALB/c mice (National Laboratory Animal Center, Taipei, Taiwan) by intravenous injection of a single dose of adriamycin (0.10 mg/10 g body weight) (Pfizer, New York, N.Y.) as described previously. […] Age- and sex-matched BALB/c mice were used as normal controls. Urine samples were collected in metabolic cages on days 3, 7, 14, 21, and 28. Renal cortical tissues and blood samples were collected when the mice were sacrificed and stored appropriately for further analysis. The concentration of urine protein was determined using BCA kits (Pierce, Rockford, Ill.) as described previously and normalized to urine creatinine (Cr) levels measured using kits (Wako Pure Chemical Industries, Osaka, Japan), as described previously. Serum levels of blood urea nitrogen (BUN) and Cr were determined using BUN kits and Cr kits (both from Fuji Dry-Chem Slide, Fuji Film Medical, Tokyo, Japan), as described previously. Superoxide anion levels in serum, urine, and kidney tissues were determined as described previously. The results were expressed as relative luminescence units (RLU) per 15 min per milliliter (i.e., RLU/15 min/ml) for serum and urine samples or per milligram dry weight (i.e., RLU/15 min/mg dry weight) for kidney tissues. In addition, renal superoxide anion levels were measured by dihydroethidium (DHE) binding, fluorescence being quantified by counting the percentage of the total nuclei that were positive per kidney cross section as described previously. NO levels in serum and urine were measured using NO detection kits (Abeam, Cambridge, Mass.) according to the manufacturer's instructions."}, "[2]": {"system": "mouse FSGS model (adriamycin-induced, BALB/c mice)", "assay": "Mouse FSGS model: renal histopathology (H&E) and Col-IV immunohistochemistry", "assay_type": "in vivo", "conditions": "days 14 and 28, Citral 200 mg/kg daily by gavage, p<0.01", "procedure": "A progressive type of mouse FSGS model was used, particularly characterized by EPHLs, a key histopathology index of progression of FSGS, peri-glomerular inflammation, and progressive glomerular hyalinosis/sclerosis. The FSGS model was induced in 8-week-old male BALB/c mice (National Laboratory Animal Center, Taipei, Taiwan) by intravenous injection of a single dose of adriamycin (0.10 mg/10 g body weight) (Pfizer, New York, N.Y.) as described previously. […] Age- and sex-matched BALB/c mice were used as normal controls. Urine samples were collected in metabolic cages on days 3, 7, 14, 21, and 28. Renal cortical tissues and blood samples were collected when the mice were sacrificed and stored appropriately for further analysis. The concentration of urine protein was determined using BCA kits (Pierce, Rockford, Ill.) as described previously and normalized to urine creatinine (Cr) levels measured using kits (Wako Pure Chemical Industries, Osaka, Japan), as described previously. Serum levels of blood urea nitrogen (BUN) and Cr were determined using BUN kits and Cr kits (both from Fuji Dry-Chem Slide, Fuji Film Medical, Tokyo, Japan), as described previously.\nRenal tissues were formalin-fixed, embedded in paraffin, and sections (4 μm) prepared and stained with hematoxylin and eosin (H&E) for renal histopathology as described previously or TUNEL stained for apoptosis as described previously. Renal pathology was examined and renal lesions scored as described previously. For EPHLs and sclerosis, at least 50 glomeruli in sections were examined for each mouse. To detect apoptosis in renal tissues, TUNEL staining was performed using an in situ apoptosis detection kit (Chemicon, Temecula, Calif.) according to the manufacturer's instructions. For immunohistochemistry, methyl Carnoy solution-fixed and paraffin-embedded renal sections were prepared and incubated with goat antibodies against mouse collagen IV (Col-IV) (Southern Biotech, AL) or rabbit antibodies against phosphorylated mouse NF-κB p65 (Cell Signaling Technology, MA), F4/80 (Serotec, Raleigh, N.C.), or CD3 (Serotec), then with horseradish-conjugated rabbit anti-goat IgG antibodies or swine anti-rabbit IgG antibodies (both from Dako, Carpinteria, Calif.). Quantitative image analysis software (Pax-it; Paxcam, VIIIa Park, Ill.) was used to score Col-IV staining and the number of phosphorylated NF-κB p65-, CD3-, F4/80-, or TUNEL-positive cells as described previously."}}}
{"smiles": "CC(C)=CCCC(C)=CC=O", "note": "(racemic) [Citral, 3,7-dimethyl-2,6-octadienal]", "values": [{"measurement": "adverse side effects to animals", "setting": "[1]", "result": "no apparent adverse side effects"}, {"measurement": "NF-κB transcriptional activity in LPS-stimulated macrophages", "setting": "NF-κB in RAW-Blue cells", "result": "reduced"}, {"measurement": "LPS-induced increase in ROS production", "setting": "RAW 264.7 macrophages", "result": "reduced"}, {"measurement": "renal DHE levels (in situ ROS)", "setting": "ROS and NO; p<0.01", "result": "suppressed"}, {"measurement": "superoxide anion levels in renal tissues", "setting": "ROS and NO; vs FSGS+vehicle mice, p<0.01", "result": "markedly decreased"}, {"measurement": "superoxide anion levels in serum", "setting": "ROS and NO; vs FSGS+vehicle mice, p<0.01", "result": "markedly decreased"}, {"measurement": "superoxide anion levels in urine", "setting": "ROS and NO; vs FSGS+vehicle mice, p<0.01", "result": "markedly decreased"}, {"measurement": "NO levels in serum", "setting": "ROS and NO; vs FSGS+vehicle, p<0.05", "result": "significantly reduced"}, {"measurement": "NO levels in urine", "setting": "ROS and NO; vs FSGS+vehicle, p<0.05", "result": "significantly reduced"}, {"measurement": "glomerular EPHLs", "setting": "[2]; H&E", "result": "greatly decreased"}, {"measurement": "glomerular hyalinosis/sclerosis", "setting": "[2]; H&E", "result": "greatly decreased"}, {"measurement": "peri-glomerular inflammation", "setting": "[2]; H&E", "result": "greatly decreased"}, {"measurement": "renal Col-IV expression", "setting": "[2]; immunohistochemistry", "result": "markedly inhibited"}]}
